As a reminder, the IC50 is the midpoint of a concentration-inhibition curve. For orientation: EC30 means the concentration needed for an effect of 30%. A higher EC30 goes with weaker potency.

In one test the target is T1, human PRMT3 (Homo sapiens, UniProt O60678).
T1 construct: GST-tagged PRMT3; made in house; host or cells: E. coli BL21(DE3) Gold
T1 sequence (O60678 with tags, fused parts or gaps): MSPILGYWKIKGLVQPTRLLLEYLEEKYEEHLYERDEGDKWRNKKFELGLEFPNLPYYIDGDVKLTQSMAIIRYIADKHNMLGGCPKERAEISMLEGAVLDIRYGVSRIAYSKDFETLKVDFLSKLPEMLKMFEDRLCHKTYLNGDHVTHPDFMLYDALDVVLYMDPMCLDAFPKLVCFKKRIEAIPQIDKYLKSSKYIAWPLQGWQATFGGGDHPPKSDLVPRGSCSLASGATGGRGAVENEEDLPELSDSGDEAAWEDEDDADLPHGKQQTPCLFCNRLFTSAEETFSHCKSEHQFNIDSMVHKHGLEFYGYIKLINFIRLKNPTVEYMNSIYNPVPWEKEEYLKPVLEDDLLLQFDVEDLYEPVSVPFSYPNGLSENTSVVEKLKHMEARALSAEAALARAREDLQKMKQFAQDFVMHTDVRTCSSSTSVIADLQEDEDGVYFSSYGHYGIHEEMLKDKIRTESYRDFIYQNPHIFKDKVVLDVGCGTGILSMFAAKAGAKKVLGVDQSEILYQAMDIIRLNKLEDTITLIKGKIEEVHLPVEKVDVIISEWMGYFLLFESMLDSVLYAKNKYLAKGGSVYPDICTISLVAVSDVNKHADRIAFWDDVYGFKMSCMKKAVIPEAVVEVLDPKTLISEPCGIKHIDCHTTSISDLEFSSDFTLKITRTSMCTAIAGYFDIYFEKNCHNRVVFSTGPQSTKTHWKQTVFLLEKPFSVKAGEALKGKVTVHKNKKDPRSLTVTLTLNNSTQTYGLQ
Put plainly: PRMT3 Biochemical Assay (3H-SAM Flashplate, peptide substrate). Conditions: 30 min preincubation. The source says: Peptide containing the classic RMT substrate motif was synthesized with an N-terminal linker-affinity tag motif and a C-terminal amide cap by 21st Century Biochemicals. The peptide was purified by high-performance liquid chromatography (HPLC) to greater than 95% purity and confirmed by liquid chromatography mass spectrometry (LC-MS). The sequence was Biot-Ahx-[…]-amide (SEQ ID NO:11).
Full-length human PRMT3 (NM_005788.3) isoform 1 transcript clone was amplified from an HEK 293 cDNA library and subcloned into pGEX-KG (GE Life Sciences). The resulting construct encodes an N-terminal GST tag and a thrombin cleavage sequence
GST-tagged PRMT3 was eluted with 50 mM Tris, 2 mM glutathione, pH 7.1 and 50 mM Tris, 20 mM glutathione, pH 7.1. Pooled fractions were dialysed in 20 mM Tris, 50 mM NaCl, 5% glycerol, 1 mM EDTA, 1 mM DTT, pH7.5 (Buffer B) and applied to a Q Sepharose Fast Flow column. GST-tagged PRMT3 was eluted by 500 mM NaCl in buffer B. Pooled fractions were dialyzed in 25 mM phosphate buffer, 100 mM NaCl, 5% glycerol, 2 mM DTT, pH 6.8 (Buffer C) and loaded on to a ceramic hydroxyapatite column. GST-tagged PRMT3 eluted with 25-400 mM phosphate in buffer C. Protein was concentrated and buffer was exchanged to 20 mM Tris, 150 mM NaCl, 5% glycerol, 5 mM β-mercaptoethanol, pH7.8 by ultrafiltration. The purity of recovered protein was 70%.
General Procedure for PRMT3 Enzyme Assays on Peptide Substrates.
The assays were all performed in a buffer consisting of 20 mM Bicine (pH=7.6), 1 mM TCEP, 0.005% BSG, and 0.002% Tween 20, prepared on the day of use. Compounds in 100% DMSO (1 ul) were spotted into a polypropylene 384-well V-bottom plates (Greiner) using a Platemate Plus outfitted with a 384-channel head (Thermo Scientific). DMSO (1 ul) was added to Columns 11, 12, 23, 24, rows A-H for the maximum signal control and 1 ul of SAH, a known product and inhibitor of PRMT3, was added to columns 11, 12, 23, 24, rows I-P for the minimum signal control. A cocktail (40 ul) containing the PRMT3 enzyme was added by Multidrop Combi (Thermo-Fisher). The compounds were allowed to incubate with PRMT3 for 30 min at room temperature, then a cocktail (10 ul) containing SAM and peptide was added to initiate the reaction (final volume=51 ul). The final concentrations of the components were as follows: PRMT3 was 0.5 nM, ^3H-SAM was 100 nM, non-radiolabeled SAM was 1.8 uM, peptide was 330 nM, SAH in the minimum signal control wells was 1 mM, and the DMSO concentration was 2%. The assays were stopped by the addition of potassium chloride (10 ul) to a final concentration of 100 mM. 50 ul of the reaction in the 384-well polypropylene plate was then transferred to a 384-well Flashplate and the biotinylated peptides were allowed to bind to the streptavidin surface for at least 1 hour before being washed once with 0.1% Tween20 in a Biotek ELx405 plate washer. The plates were then read in a PerkinElmer TopCount plate reader to measure the quantity of ^3H-labeled peptide bound to the Flashplate surface, measured as disintegrations per minute (dpm) or alternatively, referred to as counts per minute (cpm).
Where dpm=disintegrations per minute, cmpd=signal in assay well, and min and max are the respective minimum and maximum signal controls.
Where top and bottom are the normally allowed to float, but may be fixed at 100 or 0 respectively in a 3-parameter fit. The Hill Coefficient normally allowed to float but may also be fixed at 1 in a 3-parameter fit. Y is the % inhibition and X is the compound concentration.
In turn, `CNCCN(C)Cc1c[nH]nc1C#Cc1cccc(OC)c1` [Compound 1] came in with an IC50 of 3.01 to 10 µM.
On the same count and under the same terms, under `CNCCN(C)Cc1c[nH]nc1C#Cc1ccc(C(C)(C)C)cc1` [Compound 2] stands 1.01 to 3 µM.
`CNCCN(C)Cc1c[nH]nc1C#Cc1ccccc1` [Compound 3]: the IC50 lay within 3.01 to 10 µM.
Still for that read-out and setting: under `CNCCN(C)Cc1c[nH]nc1/C=C/c1ccc(-c2ccccc2)cc1` [Compound 5] stands 1.01 to 3 µM; under `CNCCN(C)Cc1c[nH]nc1/C=C/c1ccc(C(F)(F)F)cc1` [Compound 6], 3.01 to 10 µM; under `CNCCN(C)Cc1c[nH]nc1/C=C/c1ccc(OC)cc1` [Compound 7], 3.01 to 10 µM.
Regarding `Cc1ccc(/C=C/c2n[nH]cc2CN(C)CCN)cc1` [Compound 8], the IC50 lay in the range of 3.01 to 10 µM.
`COc1cc(/C=C/c2n[nH]cc2CN(C)CCN)cc(OC)c1` [Compound 11]: the IC50 is 1.01 to 3 µM.
`CN(CCN)Cc1c[nH]nc1/C=C/c1ccc(F)cc1F` [Compound 13] yielded an IC50 of 3.01 to 10 µM.
Same read-out and setting: under `CN(CCN)Cc1c[nH]nc1/C=C/c1cc(C(F)(F)F)cc(C(F)(F)F)c1` [Compound 14] stands 3.01 to 10 µM.
Still for that read-out and setting: under `CN(CCN)Cc1c[nH]nc1/C=C/c1cc(F)cc(F)c1` [Compound 15] stands 1.01 to 3 µM.
The compound `CN(CCN)Cc1c[nH]nc1/C=C/c1cccc(C(F)(F)F)c1` [Compound 16] gave an IC50 of 3.01 to 10 µM.
The compound `COc1cccc(/C=C/c2n[nH]cc2CN(C)CCN)c1` [Compound 17] came in with an IC50 of 1.01 to 3 µM.
On to `CN(CCN)Cc1c[nH]nc1/C=C/c1ccc(C(F)(F)F)cc1` [Compound 18], for which the IC50 fell in the range of 1.01 to 3 µM.
In the case of `COC/C=C/c1n[nH]cc1CN(C)CCN` [Compound 19], the IC50 is 3.01 to 10 µM.
Still for that read-out and setting: then `CN(CCN)Cc1c[nH]nc1/C=C/c1cccc(F)c1` [Compound 20], with 1.01 to 3 µM; and `CN(CCN)Cc1c[nH]nc1C1CCCCC1` [Compound 22], with 3.01 to 10 µM; and `CN(CCN)Cc1c[nH]nc1CCc1ccc(F)cc1` [Compound 23, N^1-((3-(4-fluorophenethyl)-1H-pyrazol-4-yl)methyl)-N^1-methylethane-1,2-diamine], with 3.01 to 10 µM.

In a further test the test system is mono-methyl arginine in RKO cells. The test can be described thus: RKO Methylation Assay, In Cell Western for mono-methyl arginine. The format is cell-based. Conditions: Homo sapiens, 72 hours, percent activation of mono-methyl arginine signal. The source says:
RKO adherent cells were purchased from ATCC (American Type Culture Collection), Manassas, Va., USA. DMEM/Glutamax medium, penicillin-streptomycin, heat inactivated fetal bovine serum, 0.05% trypsin and D-PBS were purchased from Life Technologies, Grand Island, N.Y., USA. Odyssey blocking buffer, 800 CW goat anti-rabbit IgG (H+L) antibody, and Licor Odyssey infrared scanner were purchased from Licor Biosciences, Lincoln, Nebr., USA. Mono-methyl arginine antibody was purchased from Cell Signaling Technology, Danvers, Mass., USA. Methanol was purchased from VWR, Franklin, Mass., USA. 10% Tween 20 was purchased from KPL, Inc., Gaithersburg, Md., USA. DRAQ5 was purchased from Biostatus Limited, Leicestershire, UK.
RKO adherent cells were maintained in growth medium (DMEM/Glutamax medium supplemented with 10% v/v heat inactivated fetal bovine serum and 100 units/mL penicillin-streptomycin) and cultured at 37° C. under 5% CO2.
Cell Treatment, in Cell Western (ICW) for Detection of Mono-Methyl Arginine and DNA Content.
RKO cells were seeded in assay medium at a concentration of 20,000 cells per mL to a poly-D-lysine coated 384 well culture plate (BD Biosciences 356697) with 50 μL per well. Compound (100 nL) from a 96-well source plate was added directly to 384 well cell plate. Plates were incubated at 37° C., 5% CO2 for 72 hours. After three days of incubation, plates were brought to room temperature outside of the incubator for ten minutes and blotted on paper towels to remove cell media. 50 μL of ice cold 100% methanol was added directly to each well and incubated for 30 min at room temperature. After 30 min, plates were transferred to a Biotek EL406 plate washer and washed 2 times with 100 μL per well of wash buffer (IX PBS). Next 60 μL per well of Odyssey blocking buffer (Odyssey Buffer with 0.1% Tween 20 (v/v)) were added to each plate and incubated 1 hour at room temperature. Blocking buffer was removed and 20 μL per well of primary antibody was added (mono-methyl arginine diluted 1:200 in Odyssey buffer with 0.1% Tween 20 (v/v)) and plates were incubated overnight (16 hours) at 4° C. Plates were washed 5 times with 100 μL per well of wash buffer. Next 20 μL per well of secondary antibody was added (1:200 800 CW goat anti-rabbit IgG (H+L) antibody, 1:1000 DRAQ5 (Biostatus limited) in Odyssey buffer with 0.1% Tween 20 (v/v)) and incubated for 1 hour at room temperature. The plates were washed 5 times with 100 μL per well wash buffer then 2 times with 100 μL per well of water. Plates were allowed to dry at room temperature then imaged on the Licor Odyssey machine which measures integrated intensity at 700 nm and 800 nm wavelengths. Both 700 and 800 channels were scanned.
First, the ratio for each well was determined by:
Each plate included fourteen control wells of DMSO only treatment (minimum activation) as well as fourteen control wells for maximum activation treated with 20 μM of a reference compound. The average of the ratio values for each control type was calculated and used to determine the percent activation for each test well in the plate. Reference compound was serially diluted three-fold in DMSO for a total of nine test concentrations, beginning at 20 μM. Percent activation was determined and EC30 curves were generated using triplicate wells per concentration of compound.
For the compound `CN(CCN)Cc1c[nH]nc1C1=CCOCC1` [Compound 10], the EC30 is more than 12 µM.
Regarding `CC(C)c1n[nH]cc1CN(C)CCN` [Compound 21], the EC30 is more than 12 µM.
For `CN(CCN)Cc1c[nH]nc1C1CCCCC1` [Compound 22], the 30% effect concentration (EC30) is less than 3 µM.
The same measure, in the same setting: under `CN(CCN)Cc1c[nH]nc1CCc1ccc(F)cc1` [Compound 23, N^1-((3-(4-fluorophenethyl)-1H-pyrazol-4-yl)methyl)-N^1-methylethane-1,2-diamine] stands less than 3 µM.
`CN(CCN)Cc1c[nH]nc1/C=C/Cc1ccccc1` [Compound 24] returned an EC30 of less than 3 µM.
`CN(CCN)Cc1c[nH]nc1C1=CCCC1` [Compound 25] returned an EC30 of 3.01 to 12 µM.
On the same count and under the same terms, then `CN(CCN)Cc1c[nH]nc1C1CCC1` [Compound 26], with more than 12 µM; and `CCCc1n[nH]cc1CN(C)CCN` [Compound 29], with more than 12 µM; and `Cc1n[nH]cc1CN(C)CCN` [Compound 30], with more than 12 µM.
Still for that read-out and setting: then `CN(CCN)Cc1c[nH]nc1C1CCCC1` [Compound 31], with more than 12 µM; and `CNCCN(C)Cc1c[nH]nc1C1CCN(C(=O)Cc2ccccc2)CC1` [Compound 32], with less than 3 µM.
`CN(CCN)Cc1n[nH]cc1C1CCCCC1` [Compound 33] showed a concentration for an effect of 30% (EC30) of 3.01 to 12 µM.
The same measure, in the same setting: then `CNCCN(C)Cc1c[nH]nc1C1CCN(C(=O)C(C)C)CC1` [Compound 34], with less than 3 µM; and `CC1CCC(c2c[nH]nc2CN(C)CCN)CC1` (stereo not drawn) [Compound 35], with less than 3 µM; and `CN(CCN)Cc1n[nH]cc1C1CCC(C)(C)CC1` [Compound 36], with less than 3 µM.
Still for that read-out and setting: under `CC1CCC(c2n[nH]cc2CN(C)CCN)CC1` (stereo not drawn) [Compound 37, N^1-methyl-N^1-((3-(4-methylcyclohexyl)-1H-pyrazol-4-yl)methyl)ethane-1,2-diamine] stands less than 3 µM; under `CN(CCN)Cc1c[nH]nc1C1CCC(C)(C)CC1` [Compound 38, N^1-((3-(4,4-dimethylcyclohexyl)-1H-pyrazol-4-yl)methyl)-N^1-methylethane-1,2-diamine], less than 3 µM.
As to `CNCCN(C)Cc1c[nH]nc1C1CCN(CC(C)C)CC1` [Compound 39, N^1-((3-(1-isobutylpiperidin-4-yl)-1H-pyrazol-4-yl)methyl)-N^1,N^2-dimethylethane-1,2-diamine], the EC30 is less than 3 µM.
Compound `CNCCN(C)Cc1c[nH]nc1C1CCN(C)CC1` [Compound 41] returned an EC30 of more than 12 µM.
On to `CNCCN(C)Cc1c[nH]nc1C1CCNCC1` [Compound 42], for which the concentration for an effect of 30% (EC30) was more than 12 µM.
`CN(CCN)Cc1n[nH]cc1C1CCC(N2CCOCC2)CC1` (stereo not drawn) [Compound 44, N^1-methyl-N^1-((4-(4-morpholinocyclohexyl)-1H-pyrazol-3-yl)methyl)ethane-1,2-diamine] yielded an EC30 of 3.01 to 12 µM.
